Measurements from the supplement of paper PMC10307832.

Tests used:
Test in all cases: relative viability (nuclei count vs DMSO), 5 days (fraction); higher = more cells survive
CX-5461 + Foretinib = compound: Cc1cnc(CNC(=O)c2c(=O)c3ccc(N4CCCN(C)CC4)nc3n3c2sc2ccccc23)cn1 [CX-5461] + COc1cc2c(Oc3ccc(NC(=O)C4(C(=O)Nc5ccc(F)cc5)CC4)cc3F)ccnc2cc1OCCCN1CCOCC1 [Foretinib] (partner 0.25 µM)
Outline: (§1)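 A single step with final 0.05% Triton X-100, 1% formaldehyde and 1 ug/ml Hoechst fixed the cells and stained nuclei 5 days after treatment. Lung cancer cell lines in 1536-well plates had been treated by pin tool the day after seeding with one drug alone or a fixed anchor-drug dose plus five library-drug doses (not always all listed) in √10 steps, and nuclei were counted on 4× images. Relative viability is the ratio of nuclei in treated wells to nuclei in vehicle wells, taken as the median of duplicate plates.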

IMD-0354 + Pemetrexed = compound: O=C(Nc1cc(C(F)(F)F)cc(C(F)(F)F)c1)c1cc(Cl)ccc1O [IMD-0354] + Nc1nc2[nH]cc(CCc3ccc(C(=O)N[C@@H](CCC(=O)O)C(=O)O)cc3)c2c(=O)[nH]1 [Pemetrexed] (partner 0.2 µM)
Outline: as §1

IMD-0354 + Lapatinib = compound: O=C(Nc1cc(C(F)(F)F)cc(C(F)(F)F)c1)c1cc(Cl)ccc1O [IMD-0354] + CS(=O)(=O)CCNCc1ccc(-c2ccc3ncnc(Nc4ccc(OCc5cccc(F)c5)c(Cl)c4)c3c2)o1 [Lapatinib] (partner 2 µM)
Outline: as §1

IMD-0354 + OSI-027 = compound: O=C(Nc1cc(C(F)(F)F)cc(C(F)(F)F)c1)c1cc(Cl)ccc1O [IMD-0354] + COc1cccc2cc(-c3nc([C@H]4CC[C@H](C(=O)O)CC4)n4ncnc(N)c34)[nH]c12 [OSI-027] (partner 0.5 µM)
Outline: as §1

Cell Line	relative viability (CX-5461 + Foretinib; first compound 0.01 µM)	relative viability (CX-5461 + Foretinib; first compound 0.03162 µM)	relative viability (CX-5461 + Foretinib; first compound 0.1 µM)	relative viability (CX-5461 + Foretinib; first compound 0.3162 µM)	relative viability (CX-5461 + Foretinib; first compound 1 µM)	relative viability (IMD-0354 + Pemetrexed; first compound 0.04 µM)	relative viability (IMD-0354 + Pemetrexed; first compound 0.1265 µM)	relative viability (IMD-0354 + Pemetrexed; first compound 0.4 µM)	relative viability (IMD-0354 + Pemetrexed; first compound 1.265 µM)	relative viability (IMD-0354 + Pemetrexed; first compound 4 µM)	relative viability (IMD-0354 + Lapatinib; first compound 0.04 µM)	relative viability (IMD-0354 + Lapatinib; first compound 0.1265 µM)	relative viability (IMD-0354 + Lapatinib; first compound 0.4 µM)	relative viability (IMD-0354 + Lapatinib; first compound 1.265 µM)	relative viability (IMD-0354 + Lapatinib; first compound 4 µM)	relative viability (IMD-0354 + OSI-027; first compound 0.04 µM)	relative viability (IMD-0354 + OSI-027; first compound 0.1265 µM)	relative viability (IMD-0354 + OSI-027; first compound 1.265 µM)	relative viability (IMD-0354 + OSI-027; first compound 4 µM)	relative viability (IMD-0354 + OSI-027; first compound 0.4 µM)
201T	1.06	1.05	1.04	1.08	0.74	0.271	0.343	0.368	0.319	0.234	1.07	1.08	0.827	1.04	0.333	0.596	0.882	0.553	0.175	
A549	1.01	0.883	0.948	0.987	0.385						1.19	1.04	0.245	0.101	0.105					
A-427	1.12	1.2	1.13		1.04	1.08	0.982	0.531	0.157	0.169	1.12	1.02	0.678	0.618	0.105	0.66	0.459	0.127	0.135	0.288
ABC-1	0.909	0.91	0.651		0.585						1.31	1.15		1.17	0.612	0.517	0.331	0.207	0.23	0.369
BEN	0.781	0.606	0.739	0.525	0.636	0.815	0.758	0.506	0.373	0.322	0.601	0.878	0.373	0.266	0.229	0.306	0.301	0.311	0.195	0.264
CAL-12T	1.03	1.08	0.966	0.945	0.741	1.37	0.916	0.574	0.559	0.204	0.611	0.665	0.533	0.4	0.259	0.807	0.463	0.193	0.17	0.385
COR-L23	0.997	1.09	0.881	0.774	0.597	0.205	0.202	0.206	0.182	0.108	1.09	0.831	0.439	0.117	0.172	0.767	0.679	0.145	0.178	0.397
COR-L 105	1.13	1.05	1.11	0.813	0.549	1.14	1.23	0.802	0.699	0.402	0.332	0.329	0.339	0.243	0.253	0.812	0.697	0.363	0.23	0.533
Calu-6	0.837	0.925	0.807	0.844	0.698						0.983	1.1	0.6	0.223	0.2					
ChaGo-K-1	0.927	0.981	0.917	0.597	0.883	0.26	0.259	0.269	0.23	0.208						0.725	0.514	0.269	0.232	0.384
EBC-1	0.108	0.085	0.11	0.112	0.0969						0.163	0.202	0.251	0.168	0.249					
EKVX	0.971	0.726	0.698	0.821	1.03	0.456	0.347		0.234	0.201	0.406	0.203		0.128	0.134	0.771	0.685	0.631	0.19	0.629
EMC-BAC-2	0.988	1.13	1.06	0.928	0.885	0.398	0.399	0.338	0.319	0.306	0.965	0.803	0.555	0.408	0.229	0.403	0.386	0.336	0.3	0.33
EPLC-272H	0.651	0.681	0.78		0.467	0.332	0.278	0.474	0.247	0.214	1.32	0.944	0.618	0.716	0.205	0.288	0.281	0.167	0.0714	0.292
H3255	0.907	0.854	0.818	0.558	0.835	0.588	0.587	0.518	0.426	0.318	0.189	0.246	0.276	0.17	0.207	0.549	0.59	0.488	0.302	0.585
HARA	1.01	1.09	0.806		0.89	0.318	0.271	0.207	0.202	0.151	0.792	0.752	0.432	0.11	0.198	0.576	0.542	0.148	0.0924	0.179
HCC-15	1.11	1.02	0.978	0.895	0.591	0.211	0.215	0.198	0.175	0.172	0.837	0.824	0.383	0.241	0.127	0.656	0.615	0.164	0.131	0.366
HCC-44						0.733	0.692	0.595	0.354	0.344	0.976	1.08	0.408	0.23	0.206	0.556	0.562	0.285	0.215	0.334
